Laboratory results from patent publication US7259278B2, “Anti-S-phase tubulin ligands” (Cytoskeleton Inc., priority 2000, dated 2007).

Tests used:
CEM cells [1] = assay: Immunofluorescence staining of microtubule structure and apoptotic DNA analysis; type: cell-based; conditions: ID90 concentration
Procedure: FIG. 5. Interferences with the formation of microtubule structure in IAABE treated CEM cells. […] Insert is DNA extracted from the same samples run on 1% agarose gels and stained with ethidium bromide. Note absence of microtubule structure and appearance of apoptotic nuclei in IAABE treated cells. Note strong signal of apoptotic DNA ladder in IAABE treated cells compared to vinblastine and paclitaxel samples.
Immunofluorescence staining of microtubule structure. CEM cells incubated in the presence or absence of IAABE were collected and centrifuged in a Cytospin centrifuge at 700 xg for 5 min. The slides were air dried and fixed with methanol at −20° C. for 20 min. The slides were incubated in PBS containing 1% BSA at 37° C. for 30 min. After washing with PBS for 3 min, cells on the slides were covered with 30 ul of antihuman beta-tubulin monoclonal antibody (4 ug/ml; Accurate Antibody, Westbury, N.Y.) and placed in a humid chamber at 24° C. for 60 min. The slides were washed with PBS three times for 3 min each, followed by staining with 10 ul of FTTC-labeled goat anti-mouse antibody (Coulter, Hialeah, Fla.) in a humid chamber at 24° C. for 60 min. After washing in PBS, the stained cells were visualized under a fluorescence microscope (model MC63, Zeiss, Jena, Germany).
Apoptotic DNA analysis. […]

CEM cells [2] = conditions: 4 n DNA; cited from earlier work
[3] = system: lymphoma cells (Daudi/wt and Daudi/MDR); assay: Cytotoxicity: cancericidal index, lymphoma cells versus normal cells; type: cell-based, human
Procedure: FIG. 9. Cytotoxicity of IAABE against different tumor cells.
Cytotoxicity assays. Cells in suspension were seeded into 96-well plates at 10^5 cells/well, and the compounds added, total well volume was 250 μl. Cells were cultured for 48 h and the viability measured by trypan blue exclusion. ID50 and ID90 values were determined by the concentration of compound required to induce cell death in 50 or 90% of cells respectively.

Prostate carcinoma = Prostate carcinoma model; type: in vivo, mice; conditions: 90 days after tumor implant
Procedure: FIG. 11. Prostate carcinoma inhibition by IAABE. • *—N,N-dimethylacetamide, propylene glycol and Tween 80 (1:2:1 v/v/v) • 1—2.5×10^6 tumor cells were injected s.c. on day 0, treatment started at day 1. • 2—TI%=Tumor growth inhibition 1 week after last treatment. • 3—TF/T=Tumor free mice at day 90 after tumor implant.

[4] = target: mitochondrial permeability transition pore complex; conditions: read-out: Kd of interaction with a component (probably tubulin) on the mitochondrial outer membrane; cited from earlier work

SMILES | microtubule structure by immunofluorescence (CEM cells [1]) | cell cycle phase of arrest (CEM cells [2]) | cancericidal index, ratio (ID50 normal cells/ID50 cancer cells) [3] | tumor free mice (Prostate carcinoma) | Kd [4]
CC(=O)O[C@H]1C(=O)[C@@]2(C)[C@H]([C@H](OC(=O)c3ccccc3)[C@]3(O)C[C@H](OC(=O)[C@H](O)[C@@H](NC(=O)c4ccccc4)c4ccccc4)C(C)=C1C3(C)C)[C@]1(OC(C)=O)CO[C@@H]1C[C@@H]2O [paclitaxel] | dense mitotic spindle staining | G2/M phase | 24 | no tumor free mice | 5 to 20 µM
CC[C@]1(O)C[C@@H]2CN(CCc3c([nH]c4ccccc34)[C@@](C(=O)OC)(c3cc4c(cc3OC)N(C)[C@H]3[C@@](O)(C(=O)OC)[C@H](OC(C)=O)[C@]5(CC)C=CCN6CC[C@]43[C@@H]65)C2)C1 [vinblastine] | punctuated aggregates of tubulin | G2/M phase | 42 | no tumor free mice | 
